From patent US20240425464A1, “Substituted Monohydrazides as Potent Antifungal Agents” (University of Kentucky Research Foundation, priority 2023, published 2024)
In brackets after ≈: the same amount, converted by molar mass. Like-named read-outs stand apart in the source and are kept apart here.

What was measured:
[1] = system: C. albicans ATCC 10231 (strain A); assay: MIC determination by in vitro antifungal assay (CLSI broth dilution); type: cell-based, Candida albicans; settings: strain A = C. albicans ATCC 10231, no visible growth, 48 h at 35° C.
Experimental: (§1) 10 mg/mL stock solutions of compounds 1a-9j were prepared in dimethyl sulfoxide (DMSO) and were stored at −20° C. in the dark. The antifungal agent amphotericin B (AmB) was purchased from VWR (Radnor PA, USA). AmB was dissolved in DMSO at a final concentration of 5 mg/mL and was stored at −20° C., protected from light. Candida albicans American Type Culture Collection (ATCC) 10231 (strain A), C. albicans ATCC 64124 (B), and C. albicans ATCC MYA-2876 (C) were obtained from Utah State University. C. albicans ATCC 90819 (D), C. albicans ATCC MYA-2310 (E), C. albicans ATCC MYA-1237 (F), C. albicans ATCC MYA-1003 (G), Candida glabrata ATCC 2001 (H), Candida krusei ATCC 6258 (I), Candida parapsilosis ATCC 22019 (J), Cryptococcus neoformans ATCC MYA-895 (M), Aspergillus terreus ATCC MYA-3633 (N), and Aspergillus flavus ATCC MYA-3631 (0) were obtained from the American Type Culture Collection (ATCC; Manassas, VA, USA). Aspergillus nidulans ATCC 38163 (P) was obtained from University of Kentucky. Clinically derived Aspergillus fumigatus NRRL 163 (Q), A. fumigatus NRRL 5109 (R), and A. fumigatus NRRL 6113 (S) were obtained from Northern Regional Research Laboratory (NRRL). Candida auris 384 (K), C. auris 390 (L), and fungal strains 381-400 (including 10 C. auris (AR Bank #381-390), 3 Candida duobushaemulonii (AR Bank #391, AR Bank #392, and AR Bank #394), 2 Candida haemulonii (AR Bank #393 and AR Bank #395), 1 Kodameae ohmeri (AR Bank #396), 1 C. krusei (AR Bank #397), 1 Candida lusitaniae (AR Bank #398), and 2 Saccharomyces cerevisiae strains (AR Bank #399 and AR Bank #400)) were part of a larger fungal library from the AR Bank maintained by the Centers for Disease Control and Prevention (CDC; Atlanta, GA, USA). Filamentous fungi and yeasts were cultivated at 35° C. in RPMI 1640 medium (with L-glutamine, without sodium bicarbonate, Sigma-Aldrich, St. Louis, MO) buffered to a pH of 7.0 with 0.165 M morpholinepropanesulfonic acid (MOPS) buffer (Sigma-Aldrich). For cytotoxicity assays, HepG2 and the mouse macrophage cell line J774A.1 were obtained from University of Kentucky. The human embryonic kidney cell line, HEK-293, was bought from the ATCC. Mammalian cells were grown in Dulbecco's Modified Eagle's Medium (DMEM) (from VWR) with 10% fetal bovine serum (FBS) (from VWR) and 1% Pen/Strep (from ATCC). Cell lines were cultured at 37° C. with 5% CO2 and passaged by trypsinization with 0.05% trypsin: 0.53 mM EDTA (from Sigma-Aldrich).
(§2) The MIC values of compounds 1a-9j against yeast cells (strains A-P and 381-400) were determined in 96-well plates as described in the CLSI documents M27-A3 and M38-A2 with minor modifications.^2 A single colony of freshly prepared yeast cells was used to inoculate 5 mL of yeast extract peptone dextrose (YPD) broth prior to incubation overnight with shaking at 200 rpm at 35° C. From the actively growing yeast culture, 100 µL were then transferred to 900 μL of RPMI 1640 medium and re-adjusted to achieve OD600 of 0.12 (˜1×10^6 CFU/mL). The cell suspension was further diluted to achieve 1:100 in RPMI 1640 medium. 100 μL of cells were added to the wells of a 96-well microtiter plates that contained 100 µL of the compound solution to obtain concentrations of 0.06-31.3 μg/mL of compounds 1a-9j or AmB prior to incubation for 48 h at 35° C. […]

[2] = system: C. albicans ATCC MYA-2876 (C); assay: MIC determination by in vitro antifungal assay; type: cell-based, Candida albicans; settings: strain C = C. albicans ATCC MYA-2876(S)
Experimental: as §1, §2

[3] = system: C. albicans ATCC 90819 (D); assay: MIC determination by in vitro antifungal assay; type: cell-based, Candida albicans
Experimental: as §1, §2

[4] = system: C. albicans ATCC MYA-1237 (F); assay: MIC determination by in vitro antifungal assay; type: cell-based, Candida albicans; settings: strain F = C. albicans ATCC MYA-1237(R)
Experimental: as §1, §2

[5] = system: Aspergillus nidulans ATCC 38163 (P); assay: MIC determination by in vitro antifungal assay; type: cell-based
Experimental: as §1
(§3) The MIC values of compounds 1a-9j against yeast cells (strains A-P and 381-400) were determined in 96-well plates as described in the CLSI documents M27-A3 and M38-A2 with minor modifications.^2 A single colony of freshly prepared yeast cells was used to inoculate 5 mL of yeast extract peptone dextrose (YPD) broth prior to incubation overnight with shaking at 200 rpm at 35° C. From the actively growing yeast culture, 100 µL were then transferred to 900 μL of RPMI 1640 medium and re-adjusted to achieve OD600 of 0.12 (˜1×10^6 CFU/mL). The cell suspension was further diluted to achieve 1:100 in RPMI 1640 medium. 100 μL of cells were added to the wells of a 96-well microtiter plates that contained 100 µL of the compound solution to obtain concentrations of 0.06-31.3 μg/mL of compounds 1a-9j or AmB prior to incubation for 48 h at 35° C.
(§4) Finally, the activity of these monohydrazides was explored against […] non-Candida strains: Cryptococcus neoformans ATCC MYA-895 (M), Aspergillus terreus ATCC MYA-3633 (N), Aspergillus flavus ATCC MYA-3631 (O), Aspergillus nidulans ATCC 38163 (P), Aspergillus fumigatus NRRL 163 (Q), A. fumigatus NRRL 5109 (R), and A. fumigatus NRRL 6113 (S) (Tables 1A and 1B). The double dilution method was used with concentrations ranging from 0.06 to 31.3 j·tg mL^−1 for monohydrazides 1a-9j, and the commercially available positive antifungal control amphotericin B (AmB).

[6] = system: Cryptococcus neoformans ATCC MYA-895 (M); assay: MIC determination by in vitro antifungal assay; type: cell-based; settings: strain M = C. neoformans ATCC MYA-895
Experimental: as §1, §3, §4

[7] = system: Aspergillus flavus ATCC MYA-3631 (O); assay: MIC determination by in vitro antifungal assay; type: cell-based; settings: Aspergillus flavus; strain O = A. flavus ATCC MYA-3631; read-out: MIC
Experimental: as §1, §3, §4

[8] = system: Aspergillus fumigatus NRRL 163 (Q); assay: MIC determination by in vitro antifungal assay; type: cell-based; settings: Aspergillus fumigatus, NRRL163; strain Q = A. fumigatus NRRL 163; read-out: MIC
Experimental: as §1, §3, §4

[9] = system: A. fumigatus NRRL 5109 (R); assay: MIC determination by in vitro antifungal assay; type: cell-based, Aspergillus fumigatus; settings: Aspergillus fumigatus, NRRL5109; strain R = A. fumigatus NRRL 5109; read-out: MIC
Experimental: as §1, §3, §4

[10] = system: A. fumigatus NRRL 6113 (S); assay: MIC determination by in vitro antifungal assay; type: cell-based, Aspergillus fumigatus; settings: Aspergillus fumigatus, NRRL6113; strain S = A. fumigatus NRRL 6113; read-out: MIC
Experimental: as §1, §3, §4

[11] = system: Candida glabrata ATCC 2001 (H); assay: MIC determination by in vitro antifungal assay; type: cell-based; settings: ATCC 2001 in text
Experimental: as §1, §2

[12] = Candida albicans, read-out: MIC

MIC ([1]; Candida albicans, ATCC10231, 48 h, read-out: MIC): 1.95 mg/L (≈ 5.94 µM)
MIC [1]: 3.9 μg/mL^−1
MIC [2, 12]: 0.49 mg/L (≈ 1.49 µM)
MIC [2]: 0.98 μg/mL^−1
MIC ([3]; Candida albicans, ATCC90819, strain D = C. albicans ATCC 90819(R), read-out: MIC): 1.95 mg/L (≈ 5.94 µM)
MIC ([3]; strain D = C. albicans ATCC 90819(R)): 3.9 μg/mL^−1
MIC [4, 12]: 0.98 mg/L (≈ 2.99 µM)
MIC [4]: 1.95 μg/mL^−1
MIC ([5]; Aspergillus nidulans, ATCC38163, strain P = A. nidulans ATCC 38163, read-out: MIC): 3.9 mg/L (≈ 11.9 µM)
MIC ([5]; strain P = A. nidulans ATCC 38163): 1.95 μg/mL^−1
MIC ([6]; Cryptococcus neoformans, read-out: MIC): 0.98 mg/L (≈ 2.99 µM)
MIC [6]: 0.49 μg/mL^−1
MIC [7]: > 31.3 mg/L
MIC [8]: > 31.3 mg/L
MIC [9]: 31.3 mg/L (≈ 95.4 µM)
MIC [10]: > 31.3 mg/L
MIC ([11]; Nakaseomyces glabratus, ATCC 2001 / ATCC 2004, strain H = C. glabrata ATCC 2004 (footnote), read-out: MIC): 7.8 mg/L (≈ 23.8 µM)
MIC ([11]; strain H = C. glabrata ATCC 2004 (footnote)): 15.6 μg/mL^−1
SMILES: O=C(NNc1ccc(F)cc1F)c1cccc(Br)n1 [Compound 6g]
